Laboratory results taken from ChEMBL document CHEMBL4425188, “Synthesis and immunostimulatory activity of substituted TLR7 agonists” (Bioorg Med Chem Lett, 2016).
Calls of active or inactive are those of the source. The rule behind the calls is not given here.

Columns and labels:
[1] = target: T1, Toll-like receptor 7 (Homo sapiens) (UniProt Q9NYK1); test: Agonist activity at human TLR7 expressed in HEK293 cells at 1 ng/ml by QUANTI-blue SEAP reporter gene assay; assay type: cell-based
T1 sequence (whole entry): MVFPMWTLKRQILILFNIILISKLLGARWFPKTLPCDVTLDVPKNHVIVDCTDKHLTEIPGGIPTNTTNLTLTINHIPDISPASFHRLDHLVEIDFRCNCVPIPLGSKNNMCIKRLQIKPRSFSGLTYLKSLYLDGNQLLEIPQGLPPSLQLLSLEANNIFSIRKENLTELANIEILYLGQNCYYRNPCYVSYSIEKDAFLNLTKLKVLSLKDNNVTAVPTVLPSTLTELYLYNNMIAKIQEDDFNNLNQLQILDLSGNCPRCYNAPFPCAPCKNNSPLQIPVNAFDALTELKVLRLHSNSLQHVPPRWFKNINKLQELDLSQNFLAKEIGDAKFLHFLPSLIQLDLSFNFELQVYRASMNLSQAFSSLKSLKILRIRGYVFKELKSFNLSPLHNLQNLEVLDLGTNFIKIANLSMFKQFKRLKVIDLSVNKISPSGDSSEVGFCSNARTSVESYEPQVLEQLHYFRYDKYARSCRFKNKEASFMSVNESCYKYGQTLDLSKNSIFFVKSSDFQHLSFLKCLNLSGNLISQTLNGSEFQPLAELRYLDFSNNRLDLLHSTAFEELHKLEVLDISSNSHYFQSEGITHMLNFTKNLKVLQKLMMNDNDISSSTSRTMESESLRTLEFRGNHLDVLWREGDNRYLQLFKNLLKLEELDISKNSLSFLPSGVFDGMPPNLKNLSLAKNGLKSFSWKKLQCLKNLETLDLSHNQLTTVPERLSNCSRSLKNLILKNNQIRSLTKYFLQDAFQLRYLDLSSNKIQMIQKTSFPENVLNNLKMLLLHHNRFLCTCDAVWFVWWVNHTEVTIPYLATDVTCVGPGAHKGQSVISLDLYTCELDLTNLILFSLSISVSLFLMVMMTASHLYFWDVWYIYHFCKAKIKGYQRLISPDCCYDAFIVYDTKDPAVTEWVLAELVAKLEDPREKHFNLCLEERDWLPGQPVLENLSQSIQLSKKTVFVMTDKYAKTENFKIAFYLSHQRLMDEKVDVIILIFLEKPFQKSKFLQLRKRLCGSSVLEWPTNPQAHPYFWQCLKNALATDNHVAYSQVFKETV

[2] = target: T2, Toll-like receptor 8 (Homo sapiens) (UniProt Q9NR97); test: Agonist activity at human TLR8 expressed in HEK293 cells at 5 to 1000 ng/ml by QUANTI-blue SEAP reporter gene assay; assay type: cell-based
T2 sequence (whole entry): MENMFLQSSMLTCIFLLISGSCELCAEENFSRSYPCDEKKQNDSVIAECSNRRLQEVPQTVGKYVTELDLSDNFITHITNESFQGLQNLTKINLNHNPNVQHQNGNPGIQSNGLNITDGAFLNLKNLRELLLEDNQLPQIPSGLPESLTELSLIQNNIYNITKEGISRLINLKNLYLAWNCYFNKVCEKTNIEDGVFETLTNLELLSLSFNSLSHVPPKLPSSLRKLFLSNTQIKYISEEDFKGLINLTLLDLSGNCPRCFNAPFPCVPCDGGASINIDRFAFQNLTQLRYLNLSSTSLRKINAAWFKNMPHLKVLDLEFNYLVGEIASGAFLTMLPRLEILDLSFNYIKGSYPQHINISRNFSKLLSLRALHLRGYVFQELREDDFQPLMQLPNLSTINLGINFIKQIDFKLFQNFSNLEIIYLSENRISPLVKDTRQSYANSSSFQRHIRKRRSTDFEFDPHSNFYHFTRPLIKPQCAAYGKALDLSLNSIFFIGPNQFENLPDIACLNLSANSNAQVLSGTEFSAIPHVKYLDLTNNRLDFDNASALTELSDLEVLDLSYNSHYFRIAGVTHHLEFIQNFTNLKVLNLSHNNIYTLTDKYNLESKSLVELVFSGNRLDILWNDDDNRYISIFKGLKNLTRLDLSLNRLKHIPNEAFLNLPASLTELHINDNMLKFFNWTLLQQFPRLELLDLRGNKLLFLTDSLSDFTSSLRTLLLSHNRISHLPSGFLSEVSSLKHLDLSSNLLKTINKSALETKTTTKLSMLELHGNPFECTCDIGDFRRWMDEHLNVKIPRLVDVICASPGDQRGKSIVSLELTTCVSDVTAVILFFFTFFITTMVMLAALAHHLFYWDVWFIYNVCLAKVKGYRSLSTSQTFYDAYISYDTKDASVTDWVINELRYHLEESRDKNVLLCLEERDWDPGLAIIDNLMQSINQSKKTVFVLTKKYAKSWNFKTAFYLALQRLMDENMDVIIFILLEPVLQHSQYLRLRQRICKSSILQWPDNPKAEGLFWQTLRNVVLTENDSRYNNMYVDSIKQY

[3] = target: T3, Toll-like receptor 9 (Homo sapiens) (UniProt Q9NR96); test: Agonist activity at human TLR9 expressed in HEK293 cells at 5 to 1000 ng/ml by QUANTI-blue SEAP reporter gene assay; assay type: cell-based
T3 sequence (whole entry): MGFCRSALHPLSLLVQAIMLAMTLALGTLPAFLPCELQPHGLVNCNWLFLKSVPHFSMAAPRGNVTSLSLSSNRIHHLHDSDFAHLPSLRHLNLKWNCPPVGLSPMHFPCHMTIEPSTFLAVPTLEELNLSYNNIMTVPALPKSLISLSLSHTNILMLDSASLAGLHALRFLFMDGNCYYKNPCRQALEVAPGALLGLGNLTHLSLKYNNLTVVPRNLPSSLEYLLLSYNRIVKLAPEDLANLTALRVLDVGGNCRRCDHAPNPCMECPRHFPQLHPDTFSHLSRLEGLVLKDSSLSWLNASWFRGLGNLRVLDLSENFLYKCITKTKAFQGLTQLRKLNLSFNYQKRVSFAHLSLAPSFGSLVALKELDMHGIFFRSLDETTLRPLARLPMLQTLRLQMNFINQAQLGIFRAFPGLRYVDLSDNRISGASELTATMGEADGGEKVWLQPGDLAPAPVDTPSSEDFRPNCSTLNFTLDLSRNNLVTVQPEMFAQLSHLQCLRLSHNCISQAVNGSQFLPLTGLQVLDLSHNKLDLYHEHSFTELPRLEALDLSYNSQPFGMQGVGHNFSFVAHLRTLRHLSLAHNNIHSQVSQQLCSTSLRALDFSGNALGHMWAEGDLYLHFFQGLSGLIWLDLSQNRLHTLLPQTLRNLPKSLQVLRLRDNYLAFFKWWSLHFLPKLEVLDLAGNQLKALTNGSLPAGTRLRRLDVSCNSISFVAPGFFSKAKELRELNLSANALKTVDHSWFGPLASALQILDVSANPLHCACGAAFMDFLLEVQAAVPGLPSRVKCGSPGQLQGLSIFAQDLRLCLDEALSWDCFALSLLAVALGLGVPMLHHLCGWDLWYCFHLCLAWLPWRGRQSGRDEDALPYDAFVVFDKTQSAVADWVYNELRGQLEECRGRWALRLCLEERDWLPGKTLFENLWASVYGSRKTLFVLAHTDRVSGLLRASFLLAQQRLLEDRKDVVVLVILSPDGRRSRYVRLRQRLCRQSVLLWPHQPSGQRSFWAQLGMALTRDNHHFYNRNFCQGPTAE

HEK293 = test: Induction of SEAP reporter gene expression in TLR-deficient HEK293 cells at 5 to 1000 ng/ml; assay type: functional, cell-based; details: Homo sapiens
[4] = target: T1, Toll-like receptor 7 (Homo sapiens); test: Agonist activity at human TLR7 expressed in HEK293 cells at <= 50 ng/ml by QUANTI-blue SEAP reporter gene assay; assay type: cell-based
T-cell = test: Immunostimulatory activity in CFSE-labeled human T cells assessed as TLR7 agonist-induced cell proliferation at 2 to 200 nM after 6 days by FACS analysis; assay type: functional, cell-based
B cell = test: Immunostimulatory activity in CFSE-labeled human B cells assessed as TLR7 agonist-induced cell proliferation after 6 days by FACS analysis; assay type: functional, cell-based; details: 144 h
Homo sapiens = organism: Homo sapiens; test: Immunostimulatory activity in CFSE-labeled human NK cells assessed as TLR7 agonist-induced cell proliferation at 2 to 200 nM after 6 days by FACS analysis; assay type: functional

SMILES	Activity [1]	Activity [2]	Activity [3]	Activity [4]	Activity (HEK293)	Activity (T-cell)	EC50 (B cell) [nM]	Activity (Homo sapiens)
CCCCOc1nc(N)c2nc(O)n(Cc3ccc(C(=O)NCCOCCOCCN)cc3)c2n1		inactive	inactive	Active	inactive	inactive	26	inactive
CCCCOc1nc(N)c2nc(O)n(Cc3ccc(C(=O)NCCN)cc3)c2n1		inactive	inactive	Active	inactive	inactive	52.4	inactive
CCCCOc1nc(N)c2nc(O)n(Cc3ccc(C#CCN)cc3)c2n1		inactive	inactive	Active	inactive			
CCCCOc1nc(N)c2nc(O)n(Cc3ccc(C#CCO)cc3)c2n1		inactive	inactive	Active	inactive	inactive	58.3	inactive
CCCCOc1nc(N)c2nc(SCCCCSc3nc4c(N)nc(OCCCC)nc4n3Cc3ccccc3)n(Cc3ccccc3)c2n1	inactive	inactive	inactive		inactive			
CCCCOc1nc(N)c2c(n1)n(Cc1ccccc1)c(=O)n2Cc1ccccc1	inactive	inactive	inactive		inactive			
CCCCOc1nc(N)c2nc(O)n(Cc3ccc(C(=O)O)cc3)c2n1		inactive	inactive	Active	inactive	inactive	480	inactive
CCCCOc1nc(N)c2nc(O)n(Cc3ccc(CCCN)cc3)c2n1		inactive	inactive	Active	inactive			
CCCCOc1nc(N)c2nc(O)n(Cc3ccc(C(=O)NCCOCCOCCNC(=O)CCC(=O)N4Cc5ccccc5C#Cc5ccccc54)cc3)c2n1		inactive	inactive	Active	inactive			

More lines, main results first:

Activity [1]	Activity [2]	Activity [3]	Activity [4]	SMILES	Activity (HEK293)	Activity (T-cell)	EC50 (B cell) [nM]	Activity (Homo sapiens)
inactive	inactive	inactive		CCCCOc1nc(N)c2nc(OCc3ccccc3)n(Cc3ccccc3)c2n1	inactive			
	inactive	inactive	Active	CCCCOc1nc(N)c2nc(O)n(Cc3ccc(I)cc3)c2n1	inactive	inactive	126	inactive
inactive	inactive	inactive		CCCCOc1nc(N)c2nc(SCC(=O)OC(C)(C)C)n(Cc3ccccc3)c2n1	inactive			
inactive	inactive	inactive		CCCCOc1nc(N)c2nc(SCc3ccc(C#N)cc3)n(Cc3ccccc3)c2n1	inactive			
	inactive	inactive	Active	CCCCOc1nc(N)c2nc(S)n(Cc3ccccc3)c2n1	inactive	inactive	2690	inactive
inactive	inactive	inactive		CCCCOc1nc(N)c2nc(SCc3ccccc3)n(Cc3ccccc3)c2n1	inactive			
inactive	inactive	inactive		CCCCOc1nc(N)c2nc(SCc3ccc(Br)cc3)n(Cc3ccccc3)c2n1	inactive			
	inactive	inactive		CCCCOc1nc(N)c2nc(NCC)n(Cc3ccccc3)c2n1	inactive			
